# Results as given in PMC9226124, “Macrocycle-stabilization of its interaction with 14-3-3 increases plasma membrane localization and activity of CFTR” (Nature Communications, 2022).
# Where “and” joins values, the source holds several entries; their conditions need not be identical. Equal entries are not always repeated.
# Target: T1, 14-3-3β/CFTRpS753pS768 complex (Homo sapiens, UniProt P13569+P31946)
# T1 construct: His6 (cleaved yes); made in house; peptide synthetic
# Assay: FP assay, 14-3-3β titration at constant compound concentration (apparent KD)
# Assay type: binding
# Conditions: replicates; for Polarization: FC 100 uM, peptide 100 nM; for FP signal, 14-3-3β titration / FP signal: compound 100 μM
# Description: FC-A (100 µM) was added as a positive control and DMSO as the negative control. […] Background polarization was subtracted from all values, n = 3 technical replicates. […] Source data are provided as a Source Data file. […]
# The FITC-labeled peptides were dissolved in FP buffer (10 mM HEPES pH 7.4, 150 mM NaCl, 0.1% Tween20, 1 mg/mL BSA) to a final concentration of 100 nM or 10 nM. […] The dilution series were made in 384 Corning Black Round Bottom well plates and their polarization was measured with a Tecan Infinite F500 plate reader (ex. = 485 nm, em. = 535 nm). The method of fitting of the curves was: “log(agonist) vs. response – Variable slope (four parameters)” from GraphPad Prism. The equation is Y = Bottom + (Top-Bottom)/(1 + 10^((LogEC50-X)*HillSlope)).
# from the hit validation library.
# f the compound, 100 µM FC-A, or both compound and FC-A, 100 µM each. Background polarization was subtracted f
# rom all values, n=3 technical replicates.
# Source data are provided as a Source Data file.
# T1 sequence (P31946 whole entry): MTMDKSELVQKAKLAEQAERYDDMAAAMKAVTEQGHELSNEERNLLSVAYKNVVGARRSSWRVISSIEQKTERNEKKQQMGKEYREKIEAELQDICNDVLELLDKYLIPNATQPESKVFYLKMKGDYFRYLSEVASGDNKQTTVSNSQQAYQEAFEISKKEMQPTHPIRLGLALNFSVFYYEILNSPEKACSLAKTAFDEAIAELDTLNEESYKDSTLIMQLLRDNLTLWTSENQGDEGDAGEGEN
# T1 sequence (P13569 747-774 limits assumed): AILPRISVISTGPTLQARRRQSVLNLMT
smiles,measurement,setting,value
"C=CC(C)(C)OC[C@H]1O[C@H](O[C@@H]2C3=C([C@H](C)COC(C)=O)C[C@H](O)[C@]3(C)/C=C3/[C@@H](COC)CC[C@H]3[C@@H](C)[C@H]2O)[C@H](O)[C@@H](OC(C)=O)[C@@H]1O [FC-A, fusicoccin A, reference compound]",Polarization,"14-3-3β 119.2 pM, listed as FC",20 and 18
same,"FP signal, 14-3-3β titration",14-3-3β 119.2 pM,3.333 and 5.333 (2×)
same,FP signal,14-3-3β 139.2 pM,5 (2×) and 3
same,Polarization,"14-3-3β 238.4 pM, listed as FC",22 and 21
same,"FP signal, 14-3-3β titration",14-3-3β 238.4 pM,3.333 and 4.333 and 2.333
same,FP signal,14-3-3β 278.5 pM,6 and 5 and 4
same,Polarization,"14-3-3β 476.8 pM, listed as FC",21 and 19 and 18
same,"FP signal, 14-3-3β titration",14-3-3β 476.8 pM,4.333 (2×) and 2.333
same,FP signal,14-3-3β 556.9 pM,6 (2×) and 5
same,Polarization,"14-3-3β 953.7 pM, listed as FC",21 and 20 and 18
same,"FP signal, 14-3-3β titration",14-3-3β 953.7 pM,4.333 (2×) and 6.333
same,FP signal,14-3-3β 1.11389e-9 M,5 and 7 and 8
same,Polarization,"14-3-3β 1.90735e-9 M, listed as FC",18 and 20 and 19
same,"FP signal, 14-3-3β titration",14-3-3β 1.90735e-9 M,0.3333 and 5.333 and 3.333
same,FP signal,14-3-3β 2.22778e-9 M,6 and 8 and 5
same,Polarization,"14-3-3β 3.8147e-9 M, listed as FC",21 and 19
same,"FP signal, 14-3-3β titration",14-3-3β 3.8147e-9 M,0.3333 and 3.333 and 2.333
same,FP signal,14-3-3β 4.45557e-9 M,4 and 7 and 9
same,Polarization,"14-3-3β 7.62939e-9 M, listed as FC",20 and 22 and 19
same,"FP signal, 14-3-3β titration",14-3-3β 7.62939e-9 M,6.333 and 3.333 and 1.333
same,FP signal,14-3-3β 8.91113e-9 M,4 and 8 and 6
same,Polarization,"14-3-3β 1.52588e-8 M, listed as FC",22 and 19
same,"FP signal, 14-3-3β titration",14-3-3β 1.52588e-8 M,1.333 and 7.333 and 4.333
same,FP signal,14-3-3β 1.78223e-8 M,6 (2×) and 7
same,Polarization,"14-3-3β 3.05176e-8 M, listed as FC",23 and 20 and 22
same,"FP signal, 14-3-3β titration",14-3-3β 3.05176e-8 M,2.333 and 4.333 and 5.333
same,FP signal,14-3-3β 3.56445e-8 M,9 (2×) and 7
same,Polarization,"14-3-3β 6.10352e-8 M, listed as FC",24 and 25
same,"FP signal, 14-3-3β titration",14-3-3β 6.10352e-8 M,7.333 and 6.333 (2×)
same,FP signal,14-3-3β 7.12891e-8 M,10 (2×) and 11
same,Polarization,"14-3-3β 1.2207e-7 M, listed as FC",28 and 30
same,"FP signal, 14-3-3β titration",14-3-3β 1.2207e-7 M,5.333 and 9.333 and 6.333
same,FP signal,14-3-3β 1.42578e-7 M,15 and 16 and 14
same,Polarization,14-3-3β 2.44141e-7 M,35
same,"FP signal, 14-3-3β titration",14-3-3β 2.44141e-7 M,9.333 and 10.3333 and 5.333
same,FP signal,14-3-3β 2.85156e-7 M,24 and 22 (2×)
same,Polarization,"14-3-3β 4.88281e-7 M, listed as FC",48 and 46
same,"FP signal, 14-3-3β titration",14-3-3β 4.88281e-7 M,9.333 (2×) and 12.3333
same,FP signal,14-3-3β 5.70313e-7 M,40 (2×) and 33
same,Polarization,"14-3-3β 9.76563e-7 M, listed as FC",68 and 64 and 69
same,"FP signal, 14-3-3β titration",14-3-3β 9.76563e-7 M,18.3333 and 11.3333 and 16.3333
same,FP signal,14-3-3β 1.14063e-6 M,66 and 63 and 57
